Source: patent US6653306B1, “Epoxy-steroidal aldosterone antagonist and angiotensin II antagonist combination therapy” (G.D. Searle & Co., priority 1995, dated 2003)

What was measured:
rabbit aortic rings = assay: Assay B: In vitro vascular smooth muscle response for AII (antagonist activity, pA2); format: cell-based; conditions: Oryctolagus cuniculus, in vitro vascular smooth muscle response; two values per cell separated by / are separate determinations; read-out: Assay B pA2 (converted)
Procedure: Assay B: In Vitro Vascular Smooth Muscle-response for AII
The compounds of the invention were tested for antagonist activity in rabbit aortic rings. Male New Zealand white rabbits (2-2.5 kg) were sacrificed using an overdose of pentobarbital and exsanguinated via the carotid arteries. The thoracic aorta was removed, cleaned of adherent fat and connective tissue and then cut into 3-mm ring segments. The endothelium was removed from the rings by gently sliding a rolled-up piece of filter paper into the vessel lumen. The rings were then mounted in a water-jacketed tissue bath, maintained at 37° C., between moveable and fixed ends of a stainless steel wire with the moveable end attached to an FT03 Grass transducer coupled to a Model 7D Grass Polygraph for recording isometric force responses. The bath was filled with 20 ml of oxygenated (95% oxygen/5% carbon dioxide) Krebs solution of the following composition (mM): 130 NaCl, […], 15 KCl, 1.2 NaH2PO4, 1.2 MgSO4, 2.5 CaCl2, and 11.4 glucose. The preparations were equilibrated for one hour before approximately one gram of passive tension was placed on the rings. Angiotensin II concentration-response curves were then recorded (3×10^−10 to 1×10^−5 M). Each concentration of AII was allowed to elicit its maximal contraction, and then AII was washed out repeatedly for 30 minutes before rechallenging with a higher concentration of AII. Aorta rings were exposed to the test antagonist at […] for 5 minutes before challenging with AII. Adjacent segments of the same aorta ring were used for all concentration-response curves in the presence or absence of the test antagonist. The effectiveness of the test compound was expressed in terms of pA2 values and were calculated according to H. O. Schild [Br. J. Pharmacol, Chemother., 2,189-206 (1947)]. The pA2 value is the concentration of the antagonist which increases the EC50 value for AII by a factor of two. Each test antagonist was evaluated in aorta rings from two rabbits.

[1] = target: angiotensin II AT1 receptor; assay: Assay A: Angiotensin II binding activity (125I-AII displacement, rat uterine membrane preparation)

| IC50 [1] | SMILES | Kb (rabbit aortic rings) |
| --- | --- | --- |
| 460 nM | CCCCc1nc(-c2ccccc2)n(Cc2ccc(-c3ccccc3-c3nnn[nH]3)cc2)n1 [Compound 22] | 251 nM |
| 10 nM | CCCCc1nc(C(OC)OC)nn1Cc1ccc(-c2ccccc2-c2nnn[nH]2)cc1 [Compound 24] | 27.5 nM |
| 480 nM | CCCCc1nc(CCc2ccccc2)n(Cc2ccc(-c3ccccc3-c3nnn[nH]3)cc2)n1 [Compound 25] | 158 nM |
| 41 nM | CCCCc1nc(CNC(=O)OC(C)(C)C)nn1Cc1ccc(-c2ccccc2-c2nnn[nH]2)cc1 [Compound 35] | 56.2 nM |
| 1400 nM | CCCCc1nc(CN)n(Cc2ccc(-c3ccccc3-c3nnn[nH]3)cc2)n1 [Compound 36] | 1200 nM |
| 340 nM | CCCCc1nc(CC(OCC)OCC)n(Cc2ccc(-c3ccccc3-c3nnn[nH]3)cc2)n1 [Compound 37] | 126 nM |
| 10 nM | CCCCc1nc(CC)nn1Cc1ccc(-c2ccccc2-c2nnn[nH]2)cc1 [Compound 39] | 13.2 nM |
| 3700 nM | CCCCc1nc(CNC(=O)CCC(NC(C)=O)C(=O)OC(C)(C)C)nn1Cc1ccc(-c2ccccc2-c2nnn[nH]2)cc1 (stereo not drawn) [Compound 41] | 2090 nM |
| 370 nM | CCCCc1nc(CCC2CCCCC2)n(Cc2ccc(-c3ccccc3-c3nnn[nH]3)cc2)n1 [Compound 42] | 275 nM |
| 4.4 nM | CCCCc1nc(CCCO)nn1Cc1ccc(-c2ccccc2-c2nnn[nH]2)cc1 [Compound 45] | 3.89 nM |
| 110 nM | CCCCc1nc(CCCO)n(Cc2ccc(-c3ccccc3-c3nnn[nH]3)cc2)n1 [Compound 46] | 158 nM |
| 21 nM | CCCCc1nc(C(F)F)nn1Cc1ccc(-c2ccccc2-c2nnn[nH]2)cc1 [Compound 47] | 14.1 nM |
| 120 nM | CCCCc1nc(C=O)nn1Cc1ccc(-c2ccccc2-c2nnn[nH]2)cc1 [Compound 49] | 87.1 nM |
| 54 nM | CCCCc1nc(C(=O)Cc2ccccc2)nn1Cc1ccc(-c2ccccc2-c2nnn[nH]2)cc1 [Compound 50] | 19.5 nM |
| 8.7 nM | CCCCc1nc(C(F)(F)Cc2ccccc2)nn1Cc1ccc(-c2ccccc2-c2nnn[nH]2)cc1 [Compound 51] | 4.07 nM |
| 100 nM | CCCCc1nc(C(=O)O)nn1Cc1ccc(-c2ccccc2-c2nnn[nH]2)cc1 [Compound 52] | 7.24 nM |
| 65 nM | CCCCc1ncnn1Cc1ccc(-c2ccccc2-c2nnn[nH]2)cc1 [Compound 53] | 27.5 nM |
| 3100 nM | CCCCc1ncn(Cc2ccc(-c3ccccc3-c3nnn[nH]3)cc2)n1 [Compound 54] | 955 nM |
| 2300 nM | CCCCc1nc(CCCC2CCCCC2)n(Cc2ccc(-c3ccccc3-c3nnn[nH]3)cc2)n1 [Compound 57] | 1000 nM |
| 140 nM | CCCCc1nc(CCCC2CCCCC2)nn1Cc1ccc(-c2ccccc2-c2nnn[nH]2)cc1 [Compound 58] | 355 nM |
| 26 nM | CCCCc1nc(CC23CC4CC(CC(C4)C2)C3)nn1Cc1ccc(-c2ccccc2-c2nnn[nH]2)cc1 [Compound 62] | 2.04 nM |
| 61 nM | CCCCc1nc(CCC(=O)O)nn1Cc1ccc(-c2ccccc2-c2nnn[nH]2)cc1 [Compound 63] | 17 nM |
| 54 nM | CCCCc1nc(CCC(=O)O)n(Cc2ccc(-c3ccccc3-c3nnn[nH]3)cc2)n1 [Compound 64] | 100 nM |
| 23 nM | CCCCc1nc(C2CCCCC2)n(Cc2ccc(-c3ccccc3-c3nnn[nH]3)cc2)n1 [Compound 65] | 14.1 nM |

| IC50 [1] | SMILES | Kb (rabbit aortic rings) |
| --- | --- | --- |
| 3100 nM | CCCCc1nc(CCCNC(=O)OC(C)(C)C)n(Cc2ccc(-c3ccccc3-c3nnn[nH]3)cc2)n1 [Compound 67] | 1320 nM |
| 83 nM | CCCCc1nc(CCCN)nn1Cc1ccc(-c2ccccc2-c2nnn[nH]2)cc1 [Compound 72] | 776 nM |
| 790 nM | CCCCc1nc(CC2CCCCC2)n(Cc2ccc(-c3ccccc3-c3nnn[nH]3)cc2)n1 [Compound 73] | 22.4 nM |
| 6.5 nM | CCCCc1nc(CC2CCCCC2)nn1Cc1ccc(-c2ccccc2-c2nnn[nH]2)cc1 [Compound 74] | 2.75 nM |
| 5400 nM | CCCCc1nc(CC)n(Cc2ccc(-c3ccccc3C(=O)O)cc2)n1 [Compound 76] | 3020 nM |
| 15000 nM | CCCCc1nc(C)n(Cc2ccc(-c3ccccc3C(=O)O)cc2)n1 [Compound 77] | 1700 nM |
| 4.9 nM | CCCCc1nn(CCCC)c(=O)n1Cc1ccc(-c2ccccc2-c2nnn[nH]2)cc1 [Compound 79] | 0.631 nM |
| 25 nM | CCCCc1nn(CC(=O)C23CC4CC(CC(C4)C2)C3)c(=O)n1Cc1ccc(-c2ccccc2-c2nn[nH]n2)cc1 [Compound 80] | 7.94 nM |
| 8.7 nM | CCCCCCn1nc(CCCC)n(Cc2ccc(-c3ccccc3-c3nn[nH]n3)cc2)c1=O [Compound 85] | 1.26 nM |
| 9 nM | CCCCc1nn(CC(=O)OCC)c(=O)n1Cc1ccc(-c2ccccc2-c2nn[nH]n2)cc1 [Compound 86] | 15.8 nM |
| 91 nM | CCCCc1nn(CC(=O)O)c(=O)n1Cc1ccc(-c2ccccc2-c2nn[nH]n2)cc1 [Compound 87] | 15.8 nM |
| 18 nM | CCCCc1nn(CCC2CCCCC2)c(=O)n1Cc1ccc(-c2ccccc2-c2nn[nH]n2)cc1 [Compound 89] | 12.6 nM |
| 5.6 nM | CCCCCn1nc(CCCC)n(Cc2ccc(-c3ccccc3-c3nn[nH]n3)cc2)c1=O [Compound 90] | 1 nM |
| 35 nM | CCCCc1nn(CCC(C)CC(C)(C)C)c(=O)n1Cc1ccc(-c2ccccc2-c2nn[nH]n2)cc1 (stereo not drawn) [Compound 92] | 12.6 nM |
| 66 nM | CCCCc1nn(C(=O)CCC)c(=O)n1Cc1ccc(-c2ccccc2-c2nn[nH]n2)cc1 [Compound 95] | 6.31 nM |
| 21 nM | CCCCc1nn(CC(=O)c2cc(OC)ccc2OC)c(=O)n1Cc1ccc(-c2ccccc2-c2nn[nH]n2)cc1 [Compound 96] | 10 nM |
| 280 nM | CCCCc1nn(CC(OCc2ccccc2)c2ccccc2)c(=O)n1Cc1ccc(-c2ccccc2-c2nn[nH]n2)cc1 (stereo not drawn) [Compound 97] | 20 nM |
| 22 nM | CCCCc1nn(CC(O)c2cc(OC)ccc2OC)c(=O)n1Cc1ccc(-c2ccccc2-c2nn[nH]n2)cc1 (stereo not drawn) [Compound 98] | 7.94 nM |
| 280 nM | CCCCc1nn(Cc2ccc3ccccc3c2)c(=O)n1Cc1ccc(-c2ccccc2-c2nn[nH]n2)cc1 [Compound 99] | 316 nM |
| 36 nM | CCCCc1nn(C(CC(=O)OCC)C(=O)c2ccccc2)c(=O)n1Cc1ccc(-c2ccccc2-c2nn[nH]n2)cc1 (stereo not drawn) [Compound 101] | 15.8 nM |
| 43 nM | CCCCc1nn(C(C)(C)C(=O)c2ccccc2)c(=O)n1Cc1ccc(-c2ccccc2-c2nn[nH]n2)cc1 [Compound 102] | 20 nM |
| 12 nM | CCCCc1nn(CCCCC(=O)O)c(=O)n1Cc1ccc(-c2ccccc2-c2nn[nH]n2)cc1 [Compound 103] | 10 nM |
| 15 nM | CCCCc1nn(CC2CC2)c(=O)n1Cc1ccc(-c2ccccc2-c2nn[nH]n2)cc1 [Compound 104] | 10 nM |
| 48 nM | CCCCn1nc(C(C#N)CCC)n(Cc2ccc(-c3ccccc3-c3nn[nH]n3)cc2)c1=O (stereo not drawn) [Compound 106] | 20 nM |
